Measurements taken from ChEMBL document CHEMBL1133315, “Human beta3-adrenergic receptor agonists containing 1,2,3-triazole-substituted benzenesulfonamides” (Bioorg Med Chem Lett, 2000).

Assays:
[1] = biological target: T1, Beta-3 adrenergic receptor (Homo sapiens, UniProt P13945); assay: Tested for Beta3 adrenergic receptor agonist activity by its ability to stimulate adenylyl cyclase activation as % of the maximal stimulation with isoproterenol; assay type: functional
Target sequence in this assay (P13945 whole entry, looked up): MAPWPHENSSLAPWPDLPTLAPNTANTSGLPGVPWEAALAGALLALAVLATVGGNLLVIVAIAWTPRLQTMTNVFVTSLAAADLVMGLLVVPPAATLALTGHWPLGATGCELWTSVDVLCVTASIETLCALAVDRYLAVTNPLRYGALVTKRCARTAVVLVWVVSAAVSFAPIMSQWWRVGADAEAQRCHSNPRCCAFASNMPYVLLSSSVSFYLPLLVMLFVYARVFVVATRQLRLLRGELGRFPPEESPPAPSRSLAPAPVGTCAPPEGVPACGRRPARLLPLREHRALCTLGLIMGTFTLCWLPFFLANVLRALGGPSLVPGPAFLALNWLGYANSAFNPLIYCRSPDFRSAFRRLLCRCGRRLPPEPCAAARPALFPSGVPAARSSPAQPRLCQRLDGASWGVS

[2] = biological target: T1, Beta-3 adrenergic receptor; assay: Tested in vitro for its ability to stimulate increase in cAMP in CHO cells expressing the cloned human beta-3 adrenergic receptor; assay type: functional, cell-based
Target sequence in this assay (P13945 whole entry): as the sequence (P13945 whole entry, looked up) above

[3] = biological target: Beta-2 adrenergic receptor (Homo sapiens, UniProt P07550); assay: Binding affinity for clone human Beta-2 adrenergic receptor from CHO cell membranes in the presence of I-iodocyanopindolol
[4] = biological target: Beta-1 adrenergic receptor (Homo sapiens, UniProt P08588); assay: Binding affinity for cloned human Beta-1 adrenergic receptor expressed in CHO cells, tested in the presence of I-iodocyanopindolol.; assay type: cell-based
[5] = Oral bioavailability in dog; assay type: ADME, organism-based, Canis lupus familiaris; conditions: in vivo
[6] = The half life was determined; assay type: ADME, organism-based, Canis lupus familiaris; conditions: dog, in vivo
Monkey [7] = assay: Effective dose that produced hyperglycerolemia in anesthetized rhesus monkeys; assay type: functional; conditions: Cercopithecidae, in Macaca mulatta
Monkey [8] = assay: Compound was tested for separation between lipolytic potency and tachycardia, as heart rate, effect was determined at highest dose of 10 mg/kg in rhesus monkeys; assay type: functional, Cercopithecidae
[9] = The compound was tested for half life in dog; assay type: ADME, organism-based, Canis lupus familiaris; conditions: in vivo

Beta-2 adrenergic receptor, sequence (P07550 whole entry): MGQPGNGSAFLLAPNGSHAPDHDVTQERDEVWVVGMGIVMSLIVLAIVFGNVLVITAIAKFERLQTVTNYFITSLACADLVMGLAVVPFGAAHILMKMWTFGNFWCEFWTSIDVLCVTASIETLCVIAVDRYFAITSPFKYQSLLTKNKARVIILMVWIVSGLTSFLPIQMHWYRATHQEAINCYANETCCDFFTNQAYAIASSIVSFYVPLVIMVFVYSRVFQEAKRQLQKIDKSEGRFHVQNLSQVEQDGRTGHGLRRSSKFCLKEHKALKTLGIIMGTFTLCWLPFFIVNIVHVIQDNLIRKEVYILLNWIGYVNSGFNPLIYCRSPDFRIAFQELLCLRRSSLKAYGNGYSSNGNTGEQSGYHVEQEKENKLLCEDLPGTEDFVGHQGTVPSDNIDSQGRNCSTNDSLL
Beta-1 adrenergic receptor, sequence (P08588 whole entry): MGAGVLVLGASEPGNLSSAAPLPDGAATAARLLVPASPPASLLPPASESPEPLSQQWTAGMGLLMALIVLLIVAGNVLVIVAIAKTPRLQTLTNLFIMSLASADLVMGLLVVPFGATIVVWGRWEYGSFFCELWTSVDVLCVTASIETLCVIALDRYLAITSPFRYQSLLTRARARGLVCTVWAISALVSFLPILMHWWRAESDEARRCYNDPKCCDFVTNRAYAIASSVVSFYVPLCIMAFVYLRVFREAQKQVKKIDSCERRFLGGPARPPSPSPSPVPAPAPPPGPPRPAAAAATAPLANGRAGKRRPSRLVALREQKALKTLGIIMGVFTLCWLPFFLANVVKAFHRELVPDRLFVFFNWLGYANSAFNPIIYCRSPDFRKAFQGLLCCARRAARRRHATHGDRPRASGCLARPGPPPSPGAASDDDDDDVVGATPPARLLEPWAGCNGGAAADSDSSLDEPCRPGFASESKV

Row | SMILES | Activation [1] | EC50 [2] | IC50 [3] | IC50 [4] | bioavailability [5] | bioavailability ([5]; read-out: Activity) | half-life [6] | ED50 (Monkey [7]) | Heart rate (Monkey [8]) | half-life [9]
1 | O=S(=O)(Nc1ccc(CCNC[C@H](O)c2cccnc2)cc1)c1ccc(-n2ncc(Cc3cccc(F)c3)n2)cc1 | 87% | 6.4 nM | 380 nM | 3000 nM | – | – | – | – | – | –
2 | O=S(=O)(Nc1ccc(CCNC[C@H](O)c2cccnc2)cc1)c1ccc(-n2ncc(-c3ccc(F)c(F)c3)n2)cc1 | 82% | 14 nM | 1300 nM | 2600 nM | – | – | – | – | – | –
3 | O=S(=O)(Nc1ccc(CCNC[C@H](O)c2cccnc2)cc1)c1ccc(-n2ncc(C(O)c3ccc(F)cc3)n2)cc1 (stereo partly specified) | – | 3.3 nM | – | – | – | – | – | – | – | –
4 | O=S(=O)(Nc1ccc(CCNC[C@H](O)c2cccnc2)cc1)c1ccc(-n2ncc(COc3ccc(OC(F)(F)F)cc3)n2)cc1 | 75% | 14 nM | 620 nM | 6200 nM | – | – | – | – | – | –
5 | COc1ccc(-c2cnn(-c3ccc(S(=O)(=O)Nc4ccc(CCNC[C@H](O)c5cccnc5)cc4)cc3)n2)cc1F | 80% | 22 nM | 2500 nM | 5600 nM | – | – | – | – | – | –
6 | O=S(=O)(Nc1ccc(CCNC[C@H](O)c2cccnc2)cc1)c1ccc(-n2ncc(COc3ccc(C(F)(F)F)cc3)n2)cc1 | 72% | 11 nM | 730 nM | 920 nM | – | – | – | – | – | –
7 | CCCCCCNC(=O)Nc1ccc(S(=O)(=O)Nc2ccc(CCNC[C@H](O)c3cccnc3)cc2)cc1 | – | – | – | – | < 1% | – | – | – | – | –
8 | O=S(=O)(Nc1ccc(CCNC[C@H](O)c2cccnc2)cc1)c1ccc(-n2ncc(-c3ccc(F)cc3)n2)cc1 | 91% | 24 nM | 9300 nM | 40000 nM | – | – | – | – | – | –
9 | O=S(=O)(Nc1ccc(CCNC[C@H](O)c2cccnc2)cc1)c1ccc(-n2ncc(Cc3ccc(F)c(F)c3)n2)cc1 | 86% | 7.2 nM | 1000 nM | 2000 nM | – | 38% | 4 h | – | – | –
10 | O=S(=O)(Nc1ccc(CCNC[C@H](O)c2cccnc2)cc1)c1ccc(-n2ncc(Cc3c(F)cc(F)cc3F)n2)cc1 | 83% | 48 nM | 8800 nM | 10000 nM | – | – | – | – | – | –
11 | O=S(=O)(Nc1ccc(CCNC[C@H](O)c2cccnc2)cc1)c1ccc(-n2ncc(Cc3ccc(C(F)(F)F)cc3)n2)cc1 | 85% | 3.1 nM | 4700 nM | 20000 nM | – | 25% | – | 0.36 mg/kg | <5% | 6 h
12 | O=S(=O)(Nc1ccc(CCNC[C@H](O)c2cccnc2)cc1)c1ccc(-n2ncc(Cc3ccc(OC(F)(F)F)cc3)n2)cc1 | 91% | 4.1 nM | 860 nM | 2600 nM | – | – | – | – | – | –
13 | O=S(=O)(Nc1ccc(CCNC[C@H](O)c2cccnc2)cc1)c1ccc(-n2ncc(-c3ccc(C(F)(F)F)cc3)n2)cc1 | 90% | 14 nM | 21000 nM | 21000 nM | 18% | – | 15 h | – | – | –
14 | O=S(=O)(Nc1ccc(CCNC[C@H](O)c2cccnc2)cc1)c1ccc(-n2ncc(Cc3ccc(F)cc3)n2)cc1 | 75% | 14 nM | 780 nM | 2500 nM | – | – | – | – | – | –
15 | CCCCCCn1ccn(-c2ccc(S(=O)(=O)Nc3ccc(CCNC[C@H](O)c4cccnc4)cc3)cc2)c1=O [L-764646] | – | – | – | – | 7% | – | – | – | – | –
16 | O=S(=O)(Nc1ccc(CCNC[C@H](O)c2cccnc2)cc1)c1ccc(-n2ncc(Cc3c(F)cccc3F)n2)cc1 | 84% | 24 nM | 5000 nM | 28000 nM | – | – | – | – | – | –
17 | O=S(=O)(Nc1ccc(CCNC[C@H](O)c2cccnc2)cc1)c1ccc(-n2ncc(-c3cccc(F)c3)n2)cc1 | 89% | 52 nM | 8800 nM | 8700 nM | – | – | – | – | – | –
18 | O=S(=O)(Nc1ccc(CCNC[C@H](O)c2cccnc2)cc1)c1ccc(-n2ncc(COc3ccc(F)c(F)c3)n2)cc1 | 63% | 10 nM | 690 nM | 930 nM | – | – | – | – | – | –
19 | O=S(=O)(Nc1ccc(CCNC[C@H](O)c2cccnc2)cc1)c1ccc(-n2ncc(-c3ccc(OC(F)(F)F)cc3)n2)cc1 | 84% | 18 nM | 1600 nM | 1300 nM | – | – | – | – | – | –
20 | O=C(c1ccc(F)cc1)c1cnn(-c2ccc(S(=O)(=O)Nc3ccc(CCNC[C@H](O)c4cccnc4)cc3)cc2)n1 | – | 6.4 nM | – | – | – | – | – | – | – | –
